Assay results published in patent publication US10100097B2, “GIP-GLP-1 dual agonist compounds and methods” (Zealand Pharma A/S, priority 2012, dated 2018).
Numbered stars: 1 amine (or outer) side, 2 acyl side, 3 side chain; on linkers, the order of the positions; unused ones are H or OH. Square brackets hold non-standard residues; d marks the D form. Side chains are listed from the residue outwards. Peptide text beside a SMILES is read from it. * marks the point of attachment. γGlu = O=C(O)[C@H](CCC(=O)[*:2])N[*:1]; Palmitoyl = CCCCCCCCCCCCCCCC(=O)*; Aib = CC(C)(N)C(=O)O

Legend:
human GIP R = target: T1, human GIP R (Homo sapiens, UniProt P48546); assay: Human GIP receptor (GIP R) activity assay, cAMP induction (AlphaScreen cAMP kit); type: cell-based; conditions: HEK293 cells expressing the human GIP R; cAMP induction, 15 min at 37° C.; average values of multiple determinations; read-out: GIP R (EC50 in nM)
T1 construct: expressed in transfected cells
T1 sequence (P48546 22-466): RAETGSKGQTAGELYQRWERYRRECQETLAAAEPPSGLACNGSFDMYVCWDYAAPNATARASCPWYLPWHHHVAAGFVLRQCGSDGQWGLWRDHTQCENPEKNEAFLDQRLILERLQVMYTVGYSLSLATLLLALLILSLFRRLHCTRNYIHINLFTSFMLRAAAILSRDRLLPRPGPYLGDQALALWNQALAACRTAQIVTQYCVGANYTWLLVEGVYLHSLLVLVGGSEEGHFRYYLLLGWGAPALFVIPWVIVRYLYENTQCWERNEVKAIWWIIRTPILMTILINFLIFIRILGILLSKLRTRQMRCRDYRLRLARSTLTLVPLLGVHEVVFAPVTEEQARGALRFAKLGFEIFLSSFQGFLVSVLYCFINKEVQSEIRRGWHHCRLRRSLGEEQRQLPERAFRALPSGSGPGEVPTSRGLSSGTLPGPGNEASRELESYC
Protocol: Human GIP Receptor (GIP R) and GLP-1 Receptor (GLP-1 R) Activity Assay
In vitro effects of peptide conjugates of the invention were assessed by measuring the induction of cAMP following stimulation of the respective receptor by GIP, GLP1 or analogues of these, as outlined in the invention, using the AlphaSceen® cAMP kit from Perkin-Elmer according to instructions. Briefly. HEK293 cells expressing the human GIP R or GLP-1 R (stable cell lines generated through transfection of the cDNA for human GIP R or GLP-1 and selection of stable clones) were seeded at 30,000 cells/well in 96-well microtiter plates coated with 0.01% poly-L-lysine, and grown for 1 day in culture in 200 μl growth medium (DMEM, 10% FCS, Penicillin (100 IU/ml), Streptomycin (100 μg/ml)). On the day of analysis, growth medium was removed and the cells were washed once with […] Tyrode's buffer (Tyrode's Salts (9.6 g/1), 10 mM HEPES, pH 7.4). […] The Assay buffer was removed and cells are lysed in 80 μl Lysis buffer (0.1% w/v BSA, 5 mM HEPES, 0.3% v/v Tween-20) per well. From each well 10 μl lysed cells was transferred to a 384-well plate and mixed with 15 μl bead-mix (1 Unit/15 μl anti-cAMP Acceptor Beads, 1 Unit/15 μl Donor Beads, and 1 Unit/15 μl Biotinylated cAMP in Assay Buffer). The plates were mixed and incubated in the dark for an hour at room temperature before measuring using an Envision™ plate reader (Perkin-Elmer).

human GLP-1 R = target: T2, human GLP-1 R (Homo sapiens, UniProt P43220); assay: Human GLP-1 receptor (GLP-1 R) activity assay, cAMP induction (AlphaScreen cAMP kit); type: cell-based; conditions: HEK293 cells expressing the human GLP-1 R, 15 min at 37° C., average values of multiple determinations, read-out: GLP1 R (EC50 in nM)
T2 construct: expressed in transfected cells
How it was run: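 Stable HEK293 clones expressing human GIP R or GLP-1 R, grown 1 day, washed in Tyrode's buffer (10 mM HEPES, pH 7.4), then stimulated with peptide. Cells lysed and cAMP quantified by AlphaScreen competition with biotinylated cAMP, 1 h dark incubation at room temperature.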

Male C57BL/6J mice = assay: IPGTT (Intraperitoneal Glucose Tolerance Test) in mice; type: in vivo; conditions: glucose 2 g/kg i.p., peptides s.c., all time points, p<0.05 vs. vehicle
Protocol: IPGTT (Intraperitoneal Glucose Tolerance Test) in Mice
Male C57BL/6J mice (Charles River, Germany) were maintained on normal chow (Altromin 1324, Brogaarden A/S, Gentofte, Denmark) and domestic quality water with added citric acid to pH˜3.6. The animals were housed pair-wise in a light-, temperature-, and humidity-controlled room (12:12 h light-dark cycle, with lights on at 06.00-18.00 hr; 20-22° C.; 50-80% relative humidity). Mice were fasted for 5 hr before the IPGTT. Peptides and vehicle were administered subcutaneously before the intraperitoneal injection of glucose (t=0 min; 2 g/kg; 5 ml/kg). Tail vein blood was sampled at time t=0 (before glucose administration), 15, 30, 45, 60, 90, and 120 min for measurements of blood glucose.

in vivo = conditions: C57BL/6J, mouse, plasma, sc, 200 nmol/kg
Protocol: C57BL/6J mice were given a single subcutaneous dose of 200 nmol/kg body weight of each peptide to be tested. Blood samples were drawn 0.5, 2, 4, 6, 8, 16, 24 and 36 hours post-dose by sublingual bleeding. At each time point, samples from two mice were taken, i.e. 16 mice per compound. The mice were euthanized immediately after blood sampling by cervical dislocation. Plasma samples were analyzed after solid phase extraction (SPE) by liquid chromatography mass spectrometry (LC-MS/MS).

T2 sequence (P43220 24-463): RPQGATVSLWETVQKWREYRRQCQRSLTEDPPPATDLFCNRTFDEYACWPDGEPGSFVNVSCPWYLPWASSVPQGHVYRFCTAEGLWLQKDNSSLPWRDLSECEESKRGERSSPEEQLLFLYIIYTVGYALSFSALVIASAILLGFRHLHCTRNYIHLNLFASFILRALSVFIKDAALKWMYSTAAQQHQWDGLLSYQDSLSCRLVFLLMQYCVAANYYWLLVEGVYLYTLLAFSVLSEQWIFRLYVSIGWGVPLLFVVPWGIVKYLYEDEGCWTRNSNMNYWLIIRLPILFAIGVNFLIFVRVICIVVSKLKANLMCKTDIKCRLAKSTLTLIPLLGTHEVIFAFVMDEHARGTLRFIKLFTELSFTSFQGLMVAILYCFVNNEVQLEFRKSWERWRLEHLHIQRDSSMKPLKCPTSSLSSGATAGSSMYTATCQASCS

Compound	EC50 (human GIP R) [nM]	EC50 (human GLP-1 R) [nM]	Effect on glucose tolerance as compared to vehicle (Male C57BL/6J mice)	half-life (in vivo) [h]
CC[C@H](C)[C@H](NC(=O)[C@H](CCCCN)NC(=O)[C@H](CC(=O)O)NC(=O)[C@H](CC(C)C)NC(=O)[C@H](C)NC(=O)[C@@H](NC(=O)[C@H](CO)NC(=O)[C@H](Cc1ccc(O)cc1)NC(=O)[C@H](CC(=O)O)NC(=O)[C@H](CO)NC(=O)[C@@H](NC(=O)[C@H](Cc1ccccc1)NC(=O)[C@@H](NC(=O)CNC(=O)[C@H](CCC(=O)O)NC(=O)C(C)(C)NC(=O)[C@@H](N)Cc1ccc(O)cc1)[C@@H](C)O)[C@@H](C)O)[C@@H](C)CC)C(=O)N[C@@H](C)C(=O)N[C@@H](CCC(N)=O)C(=O)N[C@@H](CCCNC(=N)N)C(=O)N[C@@H](C)C(=O)N[C@@H](Cc1ccccc1)C(=O)N[C@H](C(=O)N[C@@H](CC(N)=O)C(=O)N[C@@H](Cc1c[nH]c2ccccc12)C(=O)N[C@@H](CC(C)C)C(=O)N[C@H](C(=O)N[C@@H](C)C(=O)NC(C)(C)C(=O)N[C@@H](CCCCN)C(N)=O)C(C)C)C(C)C [Compound 3] (H-Y[Aib]EGTFTSDYSIALDKIAQRAFVNWLVA[Aib]K-NH2)	0.015	0.022	–	–
CC[C@H](C)[C@H](NC(=O)[C@H](CO)NC(=O)[C@H](Cc1ccc(O)cc1)NC(=O)[C@H](CC(=O)O)NC(=O)[C@H](CO)NC(=O)[C@@H](NC(=O)[C@H](Cc1ccccc1)NC(=O)[C@@H](NC(=O)CNC(=O)[C@H](CCC(=O)O)NC(=O)C(C)(C)NC(=O)[C@@H](N)Cc1ccc(O)cc1)[C@@H](C)O)[C@@H](C)O)C(=O)N[C@@H](Cc1ccc(O)cc1)C(=O)N[C@@H](CC(C)C)C(=O)N[C@@H](CC(=O)O)C(=O)N[C@@H](CO)C(=O)N[C@@H](CCCCN)C(=O)N[C@@H](C)C(=O)N[C@@H](CCC(N)=O)C(=O)N[C@@H](CCCNC(=N)N)C(=O)N[C@@H](C)C(=O)N[C@@H](Cc1ccccc1)C(=O)N[C@H](C(=O)N[C@@H](CC(N)=O)C(=O)N[C@@H](Cc1c[nH]c2ccccc12)C(=O)N[C@@H](CC(C)C)C(=O)N[C@@H](CC(C)C)C(=O)N[C@@H](C)C(=O)NC(C)(C)C(=O)N[C@@H](CCCCN)C(N)=O)C(C)C [Compound 16] (H-Y[Aib]EGTFTSDYSIYLDSKAQRAFVNWLLA[Aib]K-NH2)	0.053	0.012	–	–
CCCCCCCCCCCCCCCC(=O)N[C@@H](CCC(=O)NCCCC[C@H](NC(=O)[C@H](CCCCN)NC(=O)[C@H](CC(=O)O)NC(=O)[C@H](CC(C)C)NC(=O)C(C)(C)NC(=O)[C@@H](NC(=O)[C@H](CO)NC(=O)[C@H](Cc1ccc(O)cc1)NC(=O)[C@H](CC(=O)O)NC(=O)[C@H](CO)NC(=O)[C@@H](NC(=O)[C@H](Cc1ccccc1)NC(=O)[C@@H](NC(=O)CNC(=O)[C@H](CCC(=O)O)NC(=O)C(C)(C)NC(=O)[C@@H](N)Cc1ccc(O)cc1)[C@@H](C)O)[C@@H](C)O)[C@@H](C)CC)C(=O)N[C@@H](C)C(=O)N[C@@H](CCC(N)=O)C(=O)N[C@@H](CCCNC(=N)N)C(=O)N[C@@H](C)C(=O)N[C@@H](Cc1ccccc1)C(=O)N[C@H](C(=O)N[C@@H](CCC(=O)O)C(=O)N[C@@H](Cc1c[nH]c2ccccc12)C(=O)N[C@@H](CC(C)C)C(=O)N[C@@H](CC(C)C)C(=O)N[C@@H](C)C(=O)N[C@@H](CCC(N)=O)C(=O)NCC(=O)N1CCC[C@H]1C(=O)N[C@@H](CO)C(=O)N[C@@H](CO)C(=O)NCC(=O)N[C@@H](C)C(=O)N1CCC[C@H]1C(=O)N1CCC[C@H]1C(=O)N1CCC[C@H]1C(=O)N[C@@H](CO)C(N)=O)C(C)C)C(=O)O [Compound 32] (H-Y[Aib]EGTFTSDYSI[Aib]LDKK([γGlu-Palmitoyl])AQRAFVEWLLAQGPSSGAPPPS-NH2)	–	0.018	significantly improved glucose tolerance	3.4
CC[C@H](C)[C@H](NC(=O)[C@H](CO)NC(=O)[C@H](Cc1ccc(O)cc1)NC(=O)[C@H](CC(=O)O)NC(=O)[C@H](CO)NC(=O)[C@@H](NC(=O)[C@H](Cc1ccccc1)NC(=O)[C@@H](NC(=O)CNC(=O)[C@H](CCC(=O)O)NC(=O)C(C)(C)NC(=O)[C@@H](N)Cc1ccc(O)cc1)[C@@H](C)O)[C@@H](C)O)C(=O)N[C@@H](Cc1ccc(O)cc1)C(=O)N[C@@H](CC(C)C)C(=O)N[C@@H](CCC(=O)O)C(=O)N[C@@H](CCCCN)C(=O)N[C@@H](CCCCN)C(=O)N[C@@H](C)C(=O)N[C@@H](C)C(=O)N[C@@H](Cc1c[nH]cn1)C(=O)N[C@@H](CC(=O)O)C(=O)N[C@@H](Cc1ccccc1)C(=O)N[C@H](C(=O)N[C@@H](CCC(=O)O)C(=O)N[C@@H](Cc1c[nH]c2ccccc12)C(=O)N[C@@H](CC(C)C)C(=O)N[C@@H](CC(C)C)C(=O)N[C@@H](CO)C(=O)N[C@@H](C)C(N)=O)C(C)C [Compound 38] (H-Y[Aib]EGTFTSDYSIYLEKKAAHDFVEWLLSA-NH2)	0.007	0.018	–	–
CC[C@H](C)[C@H](NC(=O)[C@H](CO)NC(=O)[C@H](Cc1ccc(O)cc1)NC(=O)[C@H](CC(=O)O)NC(=O)[C@H](CO)NC(=O)[C@@H](NC(=O)[C@H](Cc1ccccc1)NC(=O)[C@@H](NC(=O)CNC(=O)[C@H](CCC(=O)O)NC(=O)C(C)(C)NC(=O)[C@@H](N)Cc1ccc(O)cc1)[C@@H](C)O)[C@@H](C)O)C(=O)N[C@@H](Cc1ccc(O)cc1)C(=O)N[C@@H](CC(C)C)C(=O)N[C@@H](CC(=O)O)C(=O)N[C@@H](CCCCN)C(=O)N[C@@H](CCCCN)C(=O)N[C@@H](C)C(=O)N[C@@H](C)C(=O)N[C@@H](Cc1c[nH]cn1)C(=O)N[C@@H](CC(=O)O)C(=O)N[C@@H](Cc1ccccc1)C(=O)N[C@H](C(=O)N[C@@H](CCC(=O)O)C(=O)N[C@@H](Cc1c[nH]c2ccccc12)C(=O)N[C@@H](CC(C)C)C(=O)N[C@@H](CC(C)C)C(=O)N[C@@H](CO)C(=O)N[C@@H](C)C(N)=O)C(C)C [Compound 42] (H-Y[Aib]EGTFTSDYSIYLDKKAAHDFVEWLLSA-NH2)	0.007	0.012	–	–
CCCCCCCCCCCCCCCC(=O)N[C@@H](CCC(=O)NCCCC[C@H](NC(=O)[C@H](CCC(=O)O)NC(=O)[C@H](CC(=O)O)NC(=O)[C@H](CC(C)C)NC(=O)[C@H](Cc1ccc(O)cc1)NC(=O)[C@@H](NC(=O)[C@H](CO)NC(=O)[C@H](Cc1ccc(O)cc1)NC(=O)[C@H](CC(=O)O)NC(=O)[C@H](CO)NC(=O)[C@@H](NC(=O)[C@H](Cc1ccccc1)NC(=O)[C@@H](NC(=O)CNC(=O)[C@H](CCC(=O)O)NC(=O)C(C)(C)NC(=O)[C@@H](N)Cc1ccc(O)cc1)[C@@H](C)O)[C@@H](C)O)[C@@H](C)CC)C(=O)N[C@@H](C)C(=O)N[C@@H](C)C(=O)N[C@@H](CCCCN)C(=O)N[C@@H](CC(=O)O)C(=O)N[C@@H](Cc1ccccc1)C(=O)N[C@H](C(=O)N[C@@H](CCC(=O)O)C(=O)N[C@@H](Cc1c[nH]c2ccccc12)C(=O)N[C@@H](CC(C)C)C(=O)N[C@@H](CCC(=O)O)C(=O)N[C@@H](CO)C(=O)N[C@@H](C)C(N)=O)[C@@H](C)CC)C(=O)O [Compound 50] (H-Y[Aib]EGTFTSDYSIYLDEK([γGlu-Palmitoyl])AAKDFIEWLESA-NH2)	0.053	–	–	–
